Numbers after ± are expanded uncertainties.
Assay: mn = molality of the nth substance listed, in mol/kg
Conditions: 298.15 K, 101 kPa, Liquid, Vibrating tube method

CCCCCC(F)(F)C(F)(F)C(F)(F)C(F)(F)F [1,1,1,2,2,3,3,4,4-nonafluorononane] + CCCCCCCC
Conditions | molar volume [m3/mol]
m1 = 0.0527 | 0.0002338 ± 3e-06
m1 = 0.0601 | 0.0002337 ± 3e-06
m1 = 0.0947 | 0.0002337 ± 3e-06
m1 = 0.1337 | 0.0002337 ± 3e-06
m1 = 0.1437 | 0.0002336 ± 3e-06
m1 = 0.1755 | 0.0002334 ± 3e-06
m1 = 0.1914 | 0.0002334 ± 3e-06
m1 = 0.2141 | 0.0002334 ± 3e-06

CCCCCCC(F)(F)C(F)(F)C(F)(F)C(F)(F)F [1,1,1,2,2,3,3,4,4-nonafluorodecane] + CCCCCCCC
Conditions | molar volume [m3/mol]
m1 = 0.0465 | 0.0002496 ± 3e-06
m1 = 0.0608 | 0.0002501 ± 3e-06
m1 = 0.0703 | 0.0002498 ± 3e-06
m1 = 0.1003 | 0.0002498 ± 3e-06
m1 = 0.1403 | 0.0002498 ± 3e-06
m1 = 0.1663 | 0.0002493 ± 3e-06
m1 = 0.1689 | 0.0002492 ± 3e-06
m1 = 0.2127 | 0.0002497 ± 3e-06

FC(F)(F)C(F)(F)C(F)(F)C(F)(F)C(F)(F)C(F)(F)C(F)(F)C(F)(F)C(F)(F)F [eicosafluorononane] + CCCCCCCC
Conditions | molar volume [m3/mol]
m1 = 0.0532 | 0.0003069 ± 3e-06
m1 = 0.0565 | 0.000307 ± 3e-06
m1 = 0.0714 | 0.0003073 ± 3e-06
m1 = 0.0832 | 0.0003067 ± 3e-06
m1 = 0.1105 | 0.000307 ± 3e-06
m1 = 0.1219 | 0.0003062 ± 3e-06
m1 = 0.1488 | 0.0003058 ± 3e-06
m1 = 0.1513 | 0.0003065 ± 3e-06

FC(F)(F)C(F)(F)C(F)(F)C(F)(F)C(F)(F)C(F)(F)F [perfluorohexane] + CCCCCCCC
Conditions | molar volume [m3/mol]
m1 = 0.088 | 0.0002294 ± 3e-06
m1 = 0.1035 | 0.0002312 ± 3e-06
m1 = 0.131 | 0.0002293 ± 3e-06
m1 = 0.1624 | 0.0002278 ± 3e-06
m1 = 0.1833 | 0.0002292 ± 3e-06
m1 = 0.2156 | 0.0002299 ± 3e-06
m1 = 0.2594 | 0.0002276 ± 3e-06
m1 = 0.268 | 0.0002308 ± 3e-06
m1 = 0.304 | 0.0002288 ± 3e-06
m1 = 0.3424 | 0.0002285 ± 3e-06
m1 = 0.3621 | 0.00023 ± 3e-06
m1 = 0.4051 | 0.0002288 ± 3e-06

CCCCCCCCC(F)(F)C(F)(F)C(F)(F)C(F)(F)F [1,1,1,2,2,3,3,4,4-nonafluorododecane] + CCCCCCCC
Conditions | molar volume [m3/mol]
m1 = 0.0685 | 0.0002816 ± 3e-06
m1 = 0.0996 | 0.0002815 ± 3e-06
m1 = 0.1061 | 0.0002817 ± 3e-06
m1 = 0.1259 | 0.0002815 ± 3e-06
m1 = 0.1271 | 0.0002817 ± 3e-06
m1 = 0.1522 | 0.0002818 ± 3e-06
m1 = 0.1885 | 0.0002815 ± 3e-06
m1 = 0.2032 | 0.0002815 ± 3e-06

FC(F)(F)C(F)(F)C(F)(F)C(F)(F)C(F)(F)C(F)(F)C(F)(F)C(F)(F)F [octadecafluorooctane] + CCCCCCCC
Conditions | molar volume [m3/mol]
m1 = 0.0362 | 0.0002822 ± 3e-06
m1 = 0.0617 | 0.0002816 ± 3e-06
m1 = 0.0923 | 0.0002798 ± 3e-06
m1 = 0.1157 | 0.0002803 ± 3e-06
m1 = 0.1445 | 0.0002792 ± 3e-06
m1 = 0.1585 | 0.0002786 ± 3e-06
m1 = 0.1808 | 0.0002784 ± 3e-06
m1 = 0.2115 | 0.0002788 ± 3e-06
